From ChEMBL document CHEMBL1151474, “Replication of Colonic Crohn's Disease Mucosal Escherichia coli Isolates within Macrophages and Their Susceptibility to Antibiotics” (Antimicrob Agents Chemother, 2008)
In brackets after ≈: the same amount, converted by molar mass. Activity calls are given as the source filed them. The calls are words filed in the database; no cut-off is given here.

Key:
Escherichia coli [1] = test: Antibacterial activity against extracellular Escherichia coli isolate HM605 isolated from colonic mucosal biopsies of patient with Crohn's disease assessed as colony count at 0.1 to 100 ug/ml after 3 hrs; type: functional, organism-based
Escherichia coli [2] = test: Antibacterial activity against gentamicin-treated internalized Escherichia coli isolate HM605 in mouse J774A1 cells isolated from colonic mucosal biopsies of patient with Crohn's disease assessed as intracellular killing of bacteria at 0.1 to 100 ug/ml after 6 hrs; type: functional, organism-based; conditions: J774.A1
Escherichia coli [3] = test: Antibacterial activity against Escherichia coli isolate HM605 isolated from colonic mucosal biopsies of patient with Crohn's disease
[4] = Cmax in healthy human at 500 mg administered orally; type: ADME, organism-based; design: dose 500 mg, route oral; conditions: in vivo, po
Escherichia coli [5] = test: Antibacterial activity against gentamicin-treated internalized Escherichia coli isolate HM605 in mouse J774A1 cells isolated from colonic mucosal biopsies of patient with Crohn's disease assessed as intracellular killing of bacteria at 10% compound Cmax after 3 hrs; type: functional, J774.A1
Escherichia coli [6] = test: Antibacterial activity against mucosa-associated Escherichia coli isolates isolated from patients with Crohn's disease by disk diffusion method; type: functional
Escherichia coli [7] = test: Antibacterial activity against gentamicin-treated internalized Escherichia coli isolate HM605 in mouse J774A1 cells isolated from colonic mucosal biopsies of patient with Crohn's disease assessed as intracellular killing of bacteria at 0.1 to 100 ug/ml after 3 hrs; type: functional, organism-based; conditions: J774.A1
Escherichia coli [8] = test: Antibacterial activity against extracellular Escherichia coli isolate HM605 isolated from colonic mucosal biopsies of patient with Crohn's disease at 0.01 to 10 ug/ml after 3 hrs; type: functional, organism-based
Escherichia coli [9] = test: Antibacterial activity against gentamicin-treated internalized Escherichia coli isolate HM605 in mouse J774A1 cells isolated from colonic mucosal biopsies of patient with Crohn's disease assessed as intracellular killing of bacteria at 0.1 to 100 ug/ml after 24 hrs; type: functional, organism-based; conditions: J774.A1
Escherichia coli [10] = test: Antibacterial activity against Escherichia coli ATCC 25922 after 24 hrs by Etest antibiotic concentration gradient method; type: functional, organism-based
Escherichia coli [11] = test: Antibacterial activity against gentamicin-treated internalized Escherichia coli isolate LF82 in mouse J774A1 cells isolated from chronic ileal lesions of patient with Crohn's disease assessed as intracellular killing of bacteria at 10% compound Cmax after 3 hrs; type: functional, J774.A1
Escherichia coli [12] = test: Antibacterial activity against extracellular Escherichia coli isolate HM605 isolated from colonic mucosal biopsies of patient with Crohn's disease at 0.1 to 100 ug/ml after 3 hrs; type: functional, organism-based
Escherichia coli [13] = test: Antibacterial activity against gentamicin-treated internalized Escherichia coli isolate HM605 isolated from colonic mucosal biopsies of patient with Crohn's disease in mouse J774A1 cells assessed as intracellular killing of bacteria at 3.2 ug/ml after 3 hrs; type: functional, J774.A1
Escherichia coli [14] = test: Antibacterial activity against gentamicin-treated internalized Escherichia coli isolate HM615 in mouse J774A1 cells isolated from colonic mucosal biopsies of patient with Crohn's disease assessed as intracellular killing of bacteria at 10% compound Cmax after 3 hrs; type: functional, J774.A1
Escherichia coli [15] = test: Antibacterial activity against Escherichia coli isolate HM605 isolated from colonic mucosal biopsies of patient with Crohn's disease assessed as killing of bacteria at 100 ug/ml; type: functional
Escherichia coli [16] = test: Antibacterial activity against Escherichia coli isolate HM605 isolated from colonic mucosal biopsies of patient with Crohn's disease after 24 hrs by Etest antibiotic concentration gradient method; type: functional; conditions: isolate HM605, 24 h
J774.A1 [17] = test: Cytotoxicity against mouse J774A1 cells assessed as release of adenylate kinase at 100 ug/ml after 3 hrs […] relative to control; type: cell-based; conditions: j774.a1, 3 h
Escherichia coli [18] = test: Antibacterial activity against gentamicin-treated internalized Escherichia coli isolate HM580 in mouse J774A1 cells isolated from colonic mucosal biopsies of patient with Crohn's disease assessed as intracellular killing of bacteria at 10% compound Cmax after 3 hrs; type: functional, J774.A1
Escherichia coli [19] = test: Antibacterial activity against Escherichia coli isolate HM154 isolated from colonic mucosal biopsies of patient with Crohn's disease after 24 hrs by Etest antibiotic concentration gradient method; type: functional; conditions: isolate HM154, 24 h
Escherichia coli [20] = test: Antibacterial activity against Escherichia coli isolates isolated from patients with Crohn's disease at 15 ug/disk by susceptibility testing disk method; type: functional
[21] = Cmax in patient with Crohn's disease at 500 mg administered orally; type: ADME, organism-based; design: dose 500 mg, route oral; conditions: human, in vivo, po
Escherichia coli [22] = test: Antibacterial activity against mucosa-associated Escherichia coli isolate HM456 isolated from patient with irritable bowel syndrome or sporadic polyps after 24 hrs by Etest antibiotic concentration gradient method; type: functional; conditions: isolate HM456, 24 h
Escherichia coli [23] = test: Antibacterial activity against Escherichia coli isolate HM580 isolated from colonic mucosal biopsies of patient with Crohn's disease after 24 hrs by Etest antibiotic concentration gradient method; type: functional; conditions: isolate HM580, 24 h
Escherichia coli [24] = test: Antibacterial activity against mucosa-associated Escherichia coli isolate HM454 isolated from patient with irritable bowel syndrome or sporadic polyps after 24 hrs by Etest antibiotic concentration gradient method; type: functional; conditions: isolate HM454, 24 h
Escherichia coli [25] = test: Antibacterial activity Escherichia coli isolate HM419 isolated from ileo-colonic mucosal biopsies of patient with Crohn's disease after 24 hrs by Etest antibiotic concentration gradient method; type: functional; conditions: isolate HM419, 24 h
Escherichia coli [26] = test: Antibacterial activity Escherichia coli isolate HM413 isolated from ileo-colonic mucosal biopsies of patient with Crohn's disease after 24 hrs by Etest antibiotic concentration gradient method; type: functional; conditions: isolate HM413, 24 h
Escherichia coli [27] = test: Antibacterial activity against Escherichia coli isolate HM615 isolated from colonic mucosal biopsies of patient with Crohn's disease after 24 hrs by Etest antibiotic concentration gradient method; type: functional; conditions: isolate HM615, 24 h
Escherichia coli [28] = test: Antibacterial activity against mucosa-associated Escherichia coli isolate HM428 isolated from patient with irritable bowel syndrome or sporadic polyps after 24 hrs by Etest antibiotic concentration gradient method; type: functional; conditions: isolate HM428, 24 h
Escherichia coli [29] = test: Antibacterial activity against Escherichia coli isolate HM95 isolated from ileal mucosal biopsies of patient with Crohn's disease after 24 hrs by Etest antibiotic concentration gradient method; type: functional; conditions: isolate HM95, 24 h
Escherichia coli [30] = test: Antibacterial activity against gentamicin-treated internalized Escherichia coli isolate HM605 isolated from colonic mucosal biopsies of patient with Crohn's disease in mouse J774A1 cells assessed as intracellular killing of bacteria at 0.4 ug/ml after 3 hrs; type: functional, J774.A1
Escherichia coli [31] = test: Antibacterial activity against Escherichia coli isolates isolated from patients with Crohn's disease at 5 ug/disk by susceptibility testing disk method; type: functional
Escherichia coli [32] = test: Antibacterial activity against Escherichia coli K-12 after 24 hrs by Etest antibiotic concentration gradient method; type: functional; conditions: K-12, 24 h
Escherichia coli [33] = test: Antibacterial activity against gentamicin-treated internalized Escherichia coli isolate HM605 isolated from colonic mucosal biopsies of patient with Crohn's disease in mouse J774A1 cells assessed as intracellular killing of bacteria at 3 ug/ml after 3 hrs; type: functional, J774.A1
J774.A1 [34] = test: Cytotoxicity against mouse J774A1 cells assessed as macrophage number at 3 ug/ml after 3 hrs by total cell protein assay; type: cell-based; conditions: j774.a1, 3 h
[35] = Cmax in immunodeficiency virus-infected patient at 800 mg, po by high-pressure liquid chromatography; conditions: human, in vivo
[36] = Cmax in healthy human at 160 mg administered orally; conditions: in vivo, po
Homo sapiens = species on record: Homo sapiens; test: Cmax in human; type: ADME, organism-based; conditions: in vivo
Escherichia coli [37] = test: Antibacterial activity against gentamicin-treated internalized Escherichia coli isolate HM605 in mouse J774A1 cells isolated from colonic mucosal biopsies of patient with Crohn's disease assessed as intracellular killing of bacteria at 18 ug/ml after 3 hrs; type: functional, organism-based; conditions: J774.A1
Escherichia coli [38] = test: Antibacterial activity against gentamicin-treated internalized Escherichia coli isolate HM605 in mouse J774A1 cells isolated from colonic mucosal biopsies of patient with Crohn's disease assessed as reduction in intracellular bacterial viability at 18 ug/ml after 24 hrs; type: functional, organism-based; conditions: J774.A1
Escherichia coli [39] = test: Antibacterial activity against gentamicin-treated internalized Escherichia coli isolate HM605 in mouse J774A1 cells isolated from colonic mucosal biopsies of patient with Crohn's disease assessed as intracellular killing of bacteria at 18 ug/ml after 6 hrs; type: functional, organism-based; conditions: J774.A1

| Compound | MBC (Escherichia coli [3]) | Activity (Escherichia coli [5]) | Activity (Escherichia coli [6]) | Activity (Escherichia coli [8]) | Activity (Escherichia coli [10]) | Activity (Escherichia coli [11]) | Activity (Escherichia coli [14]) | MIC (Escherichia coli [16]) | Activity (J774.A1 [17]) | Activity (Escherichia coli [18]) | MIC (Escherichia coli [19]) | MIC (Escherichia coli [22]) | MIC (Escherichia coli [23]) | MIC (Escherichia coli [25]) | MIC (Escherichia coli [26]) | MIC (Escherichia coli [27]) | MIC (Escherichia coli [28]) | MIC (Escherichia coli [29]) | other results |
| --- | --- | --- | --- | --- | --- | --- | --- | --- | --- | --- | --- | --- | --- | --- | --- | --- | --- | --- | --- |
| CC1(C)S[C@@H]2[C@H](NC(=O)[C@H](N)c3ccccc3)C(=O)N2[C@H]1C(=O)O [AMPICILLIN] | > 100 mg/L | 20.4% | 95% | Active | Active | 10.9% | 13.8% | > 256 mg/L | 90% | 9.6% |  |  |  |  |  |  |  |  | Activity (Escherichia coli [1]): Active; Activity (Escherichia coli [2]): inactive; Cmax [4]: 3.2 µg/mL; Activity (Escherichia coli [7]): inactive; Activity (Escherichia coli [9]): inactive; Activity (Escherichia coli [12]): Active; Activity (Escherichia coli [13]): 11.1%; Activity (Escherichia coli [15]): 99.8% |
| CC[C@H]1OC(=O)[C@H](C)[C@@H](O[C@H]2C[C@@](C)(OC)[C@@H](O)[C@H](C)O2)[C@H](C)[C@@H](O[C@@H]2O[C@H](C)C[C@H](N(C)C)[C@H]2O)[C@](C)(O)C[C@@H](C)CN(C)[C@H](C)[C@@H](O)[C@]1(C)O [AZITHROMYCIN] | 5 mg/L (≈ 6.68 µM) |  |  | Active |  |  |  | 3 mg/L (≈ 4.01 µM) | 90% |  | ≤ 2 mg/L | ≤ 2 mg/L | ≤ 2 mg/L | ≤ 2 mg/L | ≤ 2 mg/L | ≤ 2 mg/L | ≤ 2 mg/L | ≤ 2 mg/L | Activity (Escherichia coli [20]): 78%; Cmax [21]: 0.4 µg/mL; MIC (Escherichia coli [24]): ≤ 2 mg/L; Activity (Escherichia coli [30]): 41% |
| O=C(N[C@H](CO)[C@H](O)c1ccc([N+](=O)[O-])cc1)C(Cl)Cl [CHLORAMPHENICOL] |  |  | 62% |  |  |  |  |  | 90% |  |  |  |  |  |  |  |  |  |  |
| CC[C@H]1OC(=O)[C@H](C)[C@@H](O[C@H]2C[C@@](C)(OC)[C@@H](O)[C@H](C)O2)[C@H](C)[C@@H](O[C@@H]2O[C@H](C)C[C@H](N(C)C)[C@H]2O)[C@](C)(OC)C[C@@H](C)C(=O)[C@H](C)[C@@H](O)[C@]1(C)O [CLARITHROMYCIN] | 3 mg/L (≈ 4.01 µM) | 33.5% |  | Active |  | 55.2% | 81.8% | 16 mg/L (≈ 21.4 µM) | 90% | 57.5% | ≥ 16 mg/L | ≥ 16 mg/L | ≥ 16 mg/L | ≥ 16 mg/L | ≥ 16 mg/L | ≥ 16 mg/L | ≥ 16 mg/L | ≥ 16 mg/L | Cmax [4]: 3 µg/mL; Activity (Escherichia coli [31]): 0%; MIC (Escherichia coli [32]): 24 mg/L (≈ 32.1 µM); MIC (Escherichia coli [24]): ≥ 16 mg/L; Activity (Escherichia coli [33]): 62.1%; Activity (J774.A1 [34]): 73.4 |
| CCn1cc(C(=O)O)c(=O)c2ccc(C)nc21 [NALIDIXIC ACID] |  |  | 100% |  |  |  |  |  | 90% |  |  |  |  |  |  |  |  |  |  |
| CC1(C)S[C@@H]2[C@H](NC(=O)Cc3ccccc3)C(=O)N2[C@H]1C(=O)O [PENICILLIN G] |  |  | 0% |  |  |  |  |  | 90% |  |  |  |  |  |  |  |  |  |  |
| Cc1cc(NS(=O)(=O)c2ccc(N)cc2)no1 [SULFAMETHOXAZOLE] |  | 39.8% |  |  | Active | 63.2% | 71.5% | > 1020 mg/L | 90% | 58.7% |  |  |  |  |  |  |  |  | Cmax [35]: 40 µg/mL |
| COc1cc(Cc2cnc(N)nc2N)cc(OC)c1OC [TRIMETHOPRIM] | 100 mg/L (≈ 344 µM) | 49.1% | 100% | Active | Active | 50.2% | 61.7% | > 32 mg/L | 90% | 46.9% | ≤ 4 mg/L | ≤ 4 mg/L | ≤ 4 mg/L | ≤ 4 mg/L | ≤ 4 mg/L | ≤ 4 mg/L | ≤ 4 mg/L | ≤ 4 mg/L | Cmax [36]: 2.3 µg/mL |
| GENTAMICIN [listing 1 of 2 here] |  |  |  |  |  |  |  |  | 90% |  |  |  |  |  |  |  |  |  | Cmax (Homo sapiens): 18 µg/mL |
| GENTAMICIN [listing 2 of 2 here] |  |  | 100% |  |  |  |  |  |  |  |  |  |  |  |  |  |  |  | Activity (Escherichia coli [37]): 7.8%; Activity (Escherichia coli [38]): 54.8%; Activity (Escherichia coli [39]): 0.3% |
